Test results published in the supplement of paper PMC10307832.

Tests used:
Test in all cases: relative viability (nuclei count vs DMSO), 5 days (fraction); higher = more cells survive
[1] = compound: CC1=CC(=C(N1C2=CC=C(C=C2)Cl)C)C(=O)CN3CCCCC3 [IU1-47] + N=C(N)NC(=N)NCCc1ccccc1 [Phenformin] (partner 250 µM)
Method in brief: (§1)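 The day after seeding in 1536-well plates, lung cancer cell lines were treated by pin tool with a single drug, or with a fixed anchor-drug dose together with five library-drug doses (not always all listed) in √10 steps. After 5 days, a combined fix-and-stain solution (final 0.05% Triton X-100, 1% formaldehyde, 1 ug/ml Hoechst) was added. Nuclei counted on 4× images gave relative viability as treated counts over vehicle counts, reported as the median of duplicate plates.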

[2] = compound: Cc1nc(C(=O)NCC(=O)O)c(O)c2ccc(Oc3ccccc3)cc12 [FG-4592] + CC(=O)Nc1cccc(-n2c(=O)n(C3CC3)c(=O)c3c(Nc4ccc(I)cc4F)n(C)c(=O)c(C)c32)c1 [Trametinib] (partner 0.02 µM)
Method in brief: as §1

[3] = compound: Cc1nc(C(=O)NCC(=O)O)c(O)c2ccc(Oc3ccccc3)cc12 [FG-4592] + CS(=O)(=O)N1CCN(Cc2cc3nc(-c4cccc5[nH]ncc45)nc(N4CCOCC4)c3s2)CC1 [Pictilisib] (partner 1 µM)
Method in brief: as §1

[4] = compound: Cc1nc(C(=O)NCC(=O)O)c(O)c2ccc(Oc3ccccc3)cc12 [FG-4592] + O=C(CCCCCCC(=O)Nc1ccccc1)NO [Vorinostat] (partner 1 µM)
Method in brief: as §1

Row | Cell Line | relative viability ([1]; first compound 0.08 µM) | relative viability ([1]; first compound 0.253 µM) | relative viability ([1]; first compound 0.8 µM) | relative viability ([1]; first compound 2.53 µM) | relative viability ([1]; first compound 8 µM) | relative viability ([2]; first compound 0.08 µM) | relative viability ([2]; first compound 0.253 µM) | relative viability ([2]; first compound 0.8 µM) | relative viability ([2]; first compound 2.53 µM) | relative viability ([2]; first compound 8 µM) | relative viability ([3]; first compound 0.08 µM) | relative viability ([3]; first compound 0.253 µM) | relative viability ([3]; first compound 0.8 µM) | relative viability ([3]; first compound 2.53 µM) | relative viability ([3]; first compound 8 µM) | relative viability ([4]; first compound 0.08 µM) | relative viability ([4]; first compound 0.253 µM) | relative viability ([4]; first compound 0.8 µM) | relative viability ([4]; first compound 2.53 µM) | relative viability ([4]; first compound 8 µM)
1 | HCC-366 | 0.648 | 0.561 | 0.648 | 0.584 | 0.594 | 0.326 | 0.347 | 0.246 | 0.361 | 0.271 | 0.0934 | 0.104 | 0.23 | 0.151 | 0.113 | 0.263 | 0.269 | 0.185 | 0.308 | 0.33
2 | HCC-827 | 0.44 | 0.425 | 0.416 | 0.464 | 0.37 | 0.495 | 0.491 | 0.48 | 0.532 | 0.506 | 1.05 | 1.04 | 1.07 | 0.875 | 0.834 | 0.85 | 0.823 | 0.927 | 0.842 | 0.81
3 | HOP-62 | 0.756 | 0.792 | 0.719 | 0.675 | 0.543 | 0.399 | 0.354 | 0.353 | 0.392 | 0.334 | 0.831 | 0.55 | 0.455 | 0.651 | 0.657 | 0.61 | 0.686 | 0.451 | 0.486 | 0.816
4 | IA-LM | – | – | – | – | – | – | – | – | – | – | 0.358 | 0.291 | 0.308 | 0.295 | 0.201 | 0.826 | 0.83 | 0.814 | 0.943 | 1.04
5 | LC-2-ad | 0.616 | 0.607 | 0.577 | 0.558 | 0.57 | 0.896 | 0.675 | 0.953 | 0.842 | 0.967 | 0.487 | 0.372 | 0.456 | 0.414 | 0.374 | 0.715 | 0.645 | 0.782 | 0.637 | 0.683
6 | LCLC-97TM1 | 0.441 | 0.409 | 0.435 | 0.428 | 0.461 | 0.211 | 0.241 | – | 0.225 | 0.148 | 0.22 | 0.192 | 0.138 | – | 0.169 | 0.63 | 0.737 | – | 0.328 | 0.671
7 | LCLC-103H | 0.334 | 0.369 | 0.326 | 0.423 | 0.298 | 0.713 | 0.582 | 0.684 | 0.684 | 0.69 | 0.5 | 0.512 | 0.509 | 0.714 | 0.654 | 0.75 | 0.733 | 0.677 | 0.707 | 0.747
8 | LK-2 | 0.467 | 0.504 | 0.432 | 0.579 | 0.239 | 0.599 | 0.661 | 0.628 | 0.621 | 0.516 | – | 0.638 | – | 0.64 | 0.475 | 0.299 | 0.245 | 0.228 | 0.208 | 0.214
9 | LOU-NH91 | 0.855 | 0.942 | 0.771 | 0.672 | 0.698 | 0.807 | 0.766 | 0.724 | 0.773 | 0.748 | 0.456 | 0.51 | 0.509 | 0.545 | 0.554 | 0.993 | 0.86 | 0.817 | 0.866 | 0.95
10 | LU99A | 0.846 | 0.838 | 0.856 | 0.813 | 0.904 | 0.548 | 0.467 | – | 0.503 | 0.523 | 0.311 | 0.28 | 0.291 | 0.316 | 0.339 | 0.464 | 0.523 | – | 0.506 | 0.423
11 | LXF-289 | 0.533 | 0.563 | 0.541 | 0.517 | 0.439 | 0.676 | 0.68 | 0.682 | 0.712 | 0.731 | 0.776 | 0.696 | 0.822 | 0.708 | 0.769 | 0.776 | 0.742 | 0.857 | 0.736 | 0.797
12 | NCI-H23 | 0.757 | 0.884 | 0.904 | 0.678 | 0.828 | 0.381 | 0.38 | 0.37 | 0.394 | 0.327 | 0.365 | 0.433 | 0.486 | 0.449 | 0.398 | 0.484 | 0.451 | 0.415 | 0.507 | 0.634
13 | NCI-H322M | 0.825 | 0.768 | 0.789 | 0.809 | 0.633 | – | 0.482 | 0.475 | 0.497 | 0.438 | 0.379 | 0.481 | 0.481 | 0.512 | 0.583 | – | 0.823 | 0.772 | 0.898 | 0.822
14 | NCI-H522 | 0.577 | 0.595 | 0.708 | 0.585 | 0.647 | 0.798 | 0.712 | – | 0.676 | 0.873 | – | – | – | – | – | 0.962 | 0.794 | – | 0.724 | 0.89
15 | NCI-H1299 | – | – | – | – | – | – | – | – | – | – | 0.913 | 0.645 | 0.915 | 0.724 | 0.752 | – | – | – | – | –
16 | NCI-H1563 | 0.657 | 0.691 | 0.629 | 0.709 | 0.584 | – | – | – | – | – | 0.655 | 0.624 | 0.657 | 0.648 | 0.669 | – | – | – | – | –
17 | NCI-H1648 | – | – | – | – | – | 0.485 | 0.445 | – | 0.456 | 0.493 | – | – | – | – | – | 0.481 | 0.683 | – | 0.349 | 0.708
18 | NCI-H1703 | – | – | – | – | – | – | – | – | – | – | 0.271 | 0.236 | 0.218 | 0.253 | 0.245 | – | – | – | – | –
19 | NCI-H1792 | 0.302 | 0.249 | 0.197 | 0.174 | 0.183 | 0.429 | 0.435 | – | 0.414 | 0.375 | 0.296 | 0.248 | 0.279 | 0.246 | 0.318 | – | – | – | – | –
20 | NCI-H2342 | 0.628 | 0.558 | 0.694 | 0.552 | 0.593 | 0.755 | 0.841 | 0.746 | 0.738 | 0.641 | – | – | – | – | – | 0.701 | 0.721 | 0.697 | 0.681 | 0.651
21 | SW 900 | 0.628 | 0.539 | 0.444 | 0.532 | 0.661 | – | 0.819 | – | 0.871 | 0.619 | – | – | – | – | – | – | 0.388 | – | 0.548 | 0.469
